{
  "source": "patent US20220251085A1",
  "about": "“CYSTEINE BINDING COMPOSITIONS AND METHODS OF USE THEREOF” (University of Virginia Patent Foundation, priority 2019, published 2022)",
  "test": "HPLC assay for profiling solution reactivity and stability of purine inhibitors",
  "assay_type": "physicochemical",
  "conditions": "N7 versus N9 tautomer, on ice 6 h",
  "protocol": "HPLC assay for profiling solution reactivity and stability of purine inhibitors—The following reagents were prepared and stored on ice prior to use. 0.1 M solution of caffeine in acetonitrile, 1.0 M solution of amino acid mimetic (butanethiol), tetramethylguanidine (TMG), 1 M HOAc in ACN and 10 mM solution of purine fragment in ACN mixture. 500 μL of fragment solution were transferred to a dram vial on ice. To the mixture, 5.5 μL of TMG and 5.5 μL of respective amino acid mimetic were added and solutions were stirred on ice for 6 h. To monitor reactivity, 50 μL aliquots were removed at indicated time points and quenched with 10 μL of a 1:1 mixture of caffeine and HOAc. Samples were injected (1 μL) and analyzed by reverse-phase HPLC on a Shimadzu 1100 Series spectrometer (Shimadzu Corporation, Kyoto, Japan) with UV detection at 254 nm. Reaction progress was evaluated by monitoring consumption of starting material (purine fragment) normalized to caffeine standard. Chromatographic separation was performed using a Phenomenex Kinetex C18 column (2.6 μm, 50×4.6 mm; Phenomenex, Torrance, Calif., United States of America). Mobile phases A and B were composed of H2O+0.1% HOAc and ACN+0.1% HOAc, respectively. […] All purine fragment peak AUCs used for calculations were normalized to caffeine standard AUCs at respective time points to account for run-to-run variations by HPLC. […]",
  "data": [
    {"smiles": "O=S(=O)(c1ccc(F)cc1)n1cnc2c(Cl)nc(Cl)nc21", "note": "[Pi-14, 2,6-dichloro-9-((4-fluorophenyl)sulfonyl)-9H-purine]", "values": [
      {"measurement": "reactivity for butanethiol", "result": "essentially equivalent reactivity"}
    ]},
    {"smiles": "O=S(=O)(c1ccc(F)cc1)n1cnc2nc(Cl)nc(Cl)c21", "note": "[Pi-13, 2,6-dichloro-7-((4-fluorophenyl)sulfonyl)-7H-purine]", "values": [
      {"measurement": "reactivity for butanethiol", "result": "essentially equivalent reactivity"}
    ]}
  ]
}
